Results from patent US20250197387A1, “BCL-XL DEGRADERS AND USES THEREOF” (Kymera Therapeutics, Inc., priority 2021, published 2025).

Target: T1, BCL-XL (Homo sapiens, UniProt Q07817)
T1 construct: endogenous in cells; host or cells: MOLT-4
Experiment: BCL-XL degradation assay, western blot in MOLT-4 cells, 16 h
Assay type: cell-based
Settings: western blot, MOLT-4 cells, 16 h; for Dmax: read-out: Bcl-xL WB in MOLT-4 degradation 16 h: Average Dmax %; for DC50: read-out: Bcl-xL WB in MOLT-4 degradation 16 h: Mean external-Abs DC50
Experimental: Compounds treatment: compounds were reconstituted in DMSO to make a stock concentration of 10 mM. MOLT-4 cells were maintained in RPMI-1640+10% FBS+1% Penicillin-Streptomycin. Cells were seeded into 6-well plates in 2 mL at the seeding density of 2e6 cells/mL. Compounds were added to the cells to a final concentration ranging 0.02-10 μM. After 16 hr incubation at 37° C., in a CO2 incubator, cells were collected in an Eppendorf tube and centrifuged at 200×g for 5 minutes, the supernatant removed and pellets washed with ice-cold PBS, centrifuged and supernatant removed again. Then. 50 μl of pre-chilled RIPA lysis buffer (Boston BioProducts. BP-115D) with protease and phosphatase inhibitors (Roche Applied Science. #04906837001 and #04693116001) was added into cell pellet to lyze the cells for 20 minutes under 4° C. Cell lysates were spin at 13000 rpm for 10 minutes. Supernatants were collected and protein concentration was measured by BCA assay kit (Solarbio. PC0020-500) following the manufacturer's protocol. Samples' final protein concentration was adjusted to 3.75 μg/uL with the RIPA lysis buffer based on BCA assay results and 4× loading buffer (Invitrogen. NP0007) was added into the samples and samples were heated to 85° C., for 10 min and then let cool at RT. Samples were centrifuged at 13000 rpm for 10 min and then loaded into a 26-well NuPAGER. Novex 4-12% Bis-Tris Midi Gel (Invitrogen. WG1403BOX) and run in NuPAGER MOPS SDS Running Buffer (Invitrogen. NP0001) for 180 minutes at 70 V into a XCell4 SureLock™ Midi-Cell Runner (Invitrogen. WR0100). Gel were transferred using the Invitrogen iBlot gel transfer device (Invitrogen. IB21001) and the nitrocellulose transfer stacks (Invitrogen, IB23001) with Program PO for 9 minutes. The membrane was then blocked with 5% bovin serum albumin for 1 hr at RT, then incubated with primary antibodies diluted in blocking buffer (LI-COR. 927-60001) and shake at 4° C., overnight. The primary antibodies were anti-BCL-xL antibody (CST. 2762:1:1000), anti-beta-actin (CST. 3700; 1:5000) and anti-GAPDH (CST. 97166:1:5000). Membranes were then washed three times with PBST for 15 minutes at RT. Secondary antibodies IR-Dye 680 CW Goat anti Mouse IgG (LI-COR. 926-68070) and IR-Dye 800 CW Goat anti Rabbit IgG (LI-COR. 926-32211) were diluted at a ratio of 1:10000 into PBST and membranes incubated for 1 hour at RT. Membranes were then washed three times with PBST for 15 minutes at RT. The western blot images were obtained using Odyssey Imaging System and quantified using Image Studio Lite Ver 5.2 software.
The letter codes for BCL-XL DC50 include: A (<0.01 μM); B (0.01-0.1 μM); C (>[…]); D (>0.5-1.0 μM); and E (>1.0 μM). The letter codes for Dmax % include A (>75%); B (50 to 75%); C (<50%).

T1 sequence (Q07817 whole entry): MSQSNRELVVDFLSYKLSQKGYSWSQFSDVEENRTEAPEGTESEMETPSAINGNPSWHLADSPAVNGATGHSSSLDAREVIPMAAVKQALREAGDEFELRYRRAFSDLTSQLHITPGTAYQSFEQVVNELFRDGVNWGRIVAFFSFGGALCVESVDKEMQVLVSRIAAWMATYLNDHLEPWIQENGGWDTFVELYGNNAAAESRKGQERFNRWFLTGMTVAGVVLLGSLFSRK

In the case of `Cc1ncsc1-c1ccc([C@H](C)NC(=O)[C@@H]2C[C@@H](O)CN2C(=O)[C@@H](NC(=O)N2CC3(CCC(C(=O)N4CCN(CC[C@H](CSc5ccccc5)Nc5ccc(S(=O)(=O)NC(=O)c6ccc(N7CCN(CC8=C(c9ccc(Cl)cc9)CCC(C)(C)C8)CC7)cc6)cc5S(=O)(=O)C(F)(F)F)CC4)CC3)C2)C(C)(C)C)cc1` [I-125], the Dmax was less than 50% and the DC50 was greater than 1000 nM.
`Cc1ncsc1-c1ccc(CNC(=O)[C@@H]2C[C@@H](O)CN2C(=O)C(c2cc(OCCCCCCCCC(=O)N(C)CC#Cc3ccc(OCCCc4sc(N5CCc6cccc(C(=O)Nc7nc8ccccc8s7)c6C5)nc4C(=O)O)c(F)c3)no2)C(C)C)cc1` (stereo partly drawn) [I-88] gave a Dmax greater than 75% and a DC50 of 10 to 100 nM.
For `Cc1ncsc1-c1ccc([C@H](C)NC(=O)[C@@H]2C[C@@H](O)CN2C(=O)[C@@H](NC(=O)CCCC(=O)N2CCN(CC[C@H](CSc3ccccc3)Nc3ccc(S(=O)(=O)NC(=O)c4ccc(N5CCN(CC6=C(c7ccc(Cl)cc7)CCC(C)(C)C6)CC5)cc4)cc3S(=O)(=O)C(F)(F)F)CC2)C(C)(C)C)cc1` [I-86], the Dmax was 50 to 75% and the DC50 was greater than 1000 nM.
`Cc1ncsc1-c1ccc([C@H](C)NC(=O)[C@@H]2C[C@@H](O)CN2C(=O)[C@@H](NC(=O)CCCN(C)C(=O)CCCCCc2ccc(N3CCc4cccc(C(=O)Nc5nc6ccccc6s5)c4C3)nc2C(=O)O)C(C)(C)C)cc1` [I-36, 6-(8-(benzo[d]thiazol-2-ylcarbamoyl)-3,4-dihydroisoquinolin-2 (1H)-yl)-3-(6-((4-(((S)-1-((2S,4R)-4-hydroxy-2-(((S)-1-(4-(4-methylthiazol-5-yl)phenyl)ethyl)carbamoyl)pyrrolidin-1-yl)-3,3-dimethyl-1-oxobutan-2-yl)amino)-4-oxobutyl)(methyl)amino)-6-oxohexyl)picolinic acid] gave a Dmax of less than 50% and a DC50 greater than 1000 nM.
For `Cc1ncsc1-c1ccc([C@H](C)NC(=O)[C@@H]2C[C@@H](O)CN2C(=O)[C@@H](NC(=O)CCCCCS(=O)(=O)NC(=O)c2cccc(N3CCc4cccc(C(=O)Nc5nc6ccccc6s5)c4C3)n2)C(C)(C)C)cc1` [I-119], the Dmax was less than 50% and the DC50 was greater than 1000 nM.
`C#Cc1ccc([C@H](C)NC(=O)[C@@H]2C[C@@H](O)CN2C(=O)[C@@H](NC(=O)N2CCC3(CCC(C(=O)N4CCN(CC[C@H](CSc5ccccc5)Nc5ccc(S(=O)(=O)NC(=O)c6ccc(N7CCN(CC8=C(c9ccc(Cl)cc9)CCC(C)(C)C8)CC7)cc6)cc5S(=O)(=O)C(F)(F)F)CC4)CC3)CC2)C(C)(C)C)cc1` [I-127] showed a Dmax of less than 50% and a DC50 greater than 1000 nM.
For `Cc1ncsc1-c1ccc([C@H](C)NC(=O)[C@@H]2C[C@@H](O)CN2C(=O)[C@@H](NC(=O)CCCCCC(=O)N(C)CCCc2cccc(F)c2OCCCc2sc(N3CCc4cccc(C(=O)Nc5nc6ccccc6s5)c4C3)nc2C(=O)O)C(C)(C)C)cc1` [I-10], the Dmax was greater than 75% and the DC50 was 100 to 500 nM.
`Cc1ncsc1-c1ccc(CNC(=O)[C@@H]2C[C@@H](O)CN2C(=O)[C@@H](NC(=O)C2(F)CC2)C(C)(C)C)c(O[C@H]2CC[C@@H](N3CCN(CC[C@H](CSc4ccccc4)Nc4ccc(S(=O)(=O)NC(=O)c5ccc(N6CCN(CC7=C(c8ccc(Cl)cc8)CCC(C)(C)C7)CC6)cc5)cc4S(=O)(=O)C(F)(F)F)CC3)CC2)c1` (single isomer, unassigned) [I-115] was tested, and the Dmax was less than 50% and the DC50 was greater than 1000 nM.
For `Cc1ncsc1-c1ccc([C@H](C)NC(=O)[C@@H]2C[C@@H](O)CN2C(=O)[C@@H](NC(=O)CCCCCS(=O)(=O)NC(=O)c2nc(N3CCc4cccc(C(=O)Nc5nc6ccccc6s5)c4C3)sc2CCCOc2ccc(C#CCN(C)C)cc2F)C(C)(C)C)cc1` [I-26], the Dmax was greater than 75% and the DC50 was less than 10 nM.
With `Cc1cc(N(CCN(C)C(=O)CCCCCCCCC(=O)N[C@H](C(=O)N2C[C@H](O)C[C@H]2C(=O)N[C@@H](C)c2ccc(-c3scnc3C)cc2)C(C)(C)C)c2ccc(-c3cnn(CC4CCCCC4)c3C)c(C(=O)O)n2)nnc1Nc1nc2ccccc2s1` [I-101] the Dmax was less than 50% and the DC50 was greater than 1000 nM.
Work on `Cc1ncsc1-c1ccc(CNC(=O)[C@@H]2C[C@@H](O)CN2C(=O)[C@@H](NC(=O)C2(F)CC2)C(C)(C)C)c(OCCCCCC(=O)N(C)CCCc2cccc(F)c2OCCCc2sc(N3CCc4cccc(C(=O)Nc5nc6ccccc6s5)c4C3)nc2C(=O)O)c1` [I-13] yielded a Dmax greater than 75% and a DC50 of 100 to 500 nM.
`Cc1ncsc1-c1ccc([C@H](C)NC(=O)[C@@H]2C[C@@H](O)CN2C(=O)[C@@H](NC(=O)CCCC(=O)N(C)CC#Cc2ccc(OCCCc3sc(N4CCc5cccc(C(=O)Nc6nc7ccccc7s6)c5C4)nc3C(=O)O)c(F)c2)C(C)(C)C)cc1` [I-2] showed a Dmax greater than 75% and a DC50 of 100 to 500 nM.
With `Cc1ncsc1-c1ccc([C@H](C)NC(=O)[C@@H]2C[C@@H](O)CN2C(=O)[C@@H](NC(=O)CCCCCC(=O)N2CCN(CCCC3(Cn4ncc(-c5ccc(N6CCc7cccc(C(=O)Nc8nc9ccccc9s8)c7C6)nc5C(=O)O)c4C)CCCCC3)CC2)C(C)(C)C)cc1` [I-131] the Dmax was 50 to 75% and the DC50 was 100 to 500 nM.
Work on `Cc1ncsc1-c1ccc(CNC(=O)[C@@H]2C[C@@H](O)CN2C(=O)[C@@H](NC(=O)C2(F)CC2)C(C)(C)C)c(OCCCCCC(=O)N(C)CC#Cc2cccc(F)c2OCCCc2sc(N3CCc4cccc(C(=O)Nc5nc6ccccc6s5)c4C3)nc2C(=O)O)c1` [I-19] yielded a Dmax of less than 50% and a DC50 greater than 1000 nM.
In the case of `Cc1ncsc1-c1ccc([C@H](C)NC(=O)[C@@H]2C[C@@H](O)CN2C(=O)[C@@H](NC(=O)N2CCC3(CCC(C(=O)N4CCN(CC[C@H](CSc5ccccc5)Nc5ccc(S(=O)(=O)NC(=O)c6ccc(N7CCN(CC8=C(c9ccc(Cl)cc9)CCC(C)(C)C8)CC7)cc6)cc5S(=O)(=O)C(F)(F)F)CC4)CC3)CC2)C(C)(C)C)cc1` [I-126], the Dmax was less than 50% and the DC50 was greater than 1000 nM.
In the case of `CC1(C)CCC(c2ccc(Cl)cc2)=C(CN2CCN(c3ccc(C(=O)NS(=O)(=O)c4ccc(N[C@H](CCN5CCN(C(=O)COc6ccccc6CNC(=O)[C@@H]6C[C@@H](O)CN6C(=O)[C@@H](NC(=O)C6(F)CC6)C(C)(C)C)CC5)CSc5ccccc5)c(S(=O)(=O)C(F)(F)F)c4)cc3)CC2)C1` [I-97], the Dmax was less than 50% and the DC50 was greater than 1000 nM.
With `Cc1ncsc1-c1ccc([C@H](C)NC(=O)[C@@H]2C[C@@H](O)CN2C(=O)[C@@H](NC(=O)CCc2ccc(N3CCc4cccc(C(=O)Nc5nc6ccccc6s5)c4C3)nc2C(=O)O)C(C)(C)C)cc1` [I-40] the Dmax was less than 50% and the DC50 was greater than 1000 nM.
Compound `Cc1ncsc1-c1ccc(CNC(=O)[C@@H]2C[C@@H](O)CN2C(=O)[C@@H](NC(=O)C2(F)CC2)C(C)(C)C)c(OCCCC(=O)N(C)CC#Cc2cccc(F)c2OCCCc2sc(N3CCc4cccc(C(=O)Nc5nc6ccccc6s5)c4C3)nc2C(=O)O)c1` [I-18] has a Dmax of 50 to 75% and a DC50 greater than 1000 nM.
In the case of `Cc1ncsc1-c1ccc([C@H](C)NC(=O)[C@@H]2C[C@@H](O)CN2C(=O)[C@@H](NC(=O)CCC2(Cn3ncc(-c4ccc(N5CCc6cccc(C(=O)Nc7nc8ccccc8s7)c6C5)nc4C(=O)O)c3C)CCCCC2)C(C)(C)C)cc1` [I-128, 6-(8-(benzo[d]thiazol-2-ylcarbamoyl)-3,4-dihydroisoquinolin-2 (1H)-yl)-3-(1-((1-(3-(((S)-1-((2S,4R)-4-hydroxy-2-(((S)-1-(4-(4-methylthiazol-5-yl)phenyl)ethyl)carbamoyl)pyrrolidin-1-yl)-3,3-dimethyl-1-oxobutan-2-yl)amino)-3-oxopropyl)cyclohexyl)methyl)-5-methyl-1H-pyrazol-4-yl)picolinic acid], the Dmax was less than 50% and the DC50 was greater than 1000 nM.
With `Cc1ncsc1-c1ccc(CNC(=O)[C@@H]2C[C@@H](O)CN2C(=O)[C@@H](NC(=O)C2(F)CC2)C(C)(C)C)c(OCCCCCCCC(=O)N(C)CC#Cc2cccc(F)c2OCCCc2sc(N3CCc4cccc(C(=O)Nc5nc6ccccc6s5)c4C3)nc2C(=O)O)c1` [I-20] the Dmax was greater than 75% and the DC50 was 100 to 500 nM.
In the case of `Cc1ncsc1-c1ccc(CNC(=O)[C@@H]2C[C@@H](O)CN2C(=O)[C@@H](NC(=O)CCOCCOCCOCC#Cc2ccc(OCCCc3sc(N4CCc5cccc(C(=O)Nc6nc7ccccc7s6)c5C4)nc3C(=O)O)cc2)C(C)(C)C)cc1` [I-385], the Dmax was greater than 75% and the DC50 was 10 to 100 nM.
